These results are taken from ChEMBL document CHEMBL5331121, “Preferred Conformation-Guided Discovery of Potent and Orally Active HIF Prolyl Hydroxylase 2 Inhibitors for the Treatment of Anemia” (J Med Chem, 2023).

Series [1] addresses Endothelial PAS domain-containing protein 1 (Homo sapiens) (UniProt Q99814). Briefly: Induction of HIF-2alpha stabilization in human Hep3B cells at 20 to 50 uM by Western blotting analysis. To be noted: dose 20-50 µM. In kind it is cell-based. (In general: Immunoblotting shows a protein as a band on a membrane.)
Series [2] deals with Mus musculus. Briefly: Upregulation of reticulocytes in C57BL/6J mouse at 10 mg/kg, po administered once daily for 3 days. In kind it is functional, organism-based. To be noted: time 3.0 day.
Series [3] relates to Erythrocyte. Nature of the series: Upregulation of reticulocytes in C57BL/6J mouse assessed as increase in RBC at 10 to 50 mg/kg, po administered once daily for 3 days. The format is functional, organism-based. The settings on record: dose 10-50 mg/kg, time 3.0 day.
Series [4] deals with Hypoxia-inducible factor 1-alpha (Homo sapiens) (UniProt Q16665). Briefly: Induction of HIF-1alpha stabilization in human Hep3B cells at 20 to 50 uM by Western blotting analysis. In kind it is cell-based. To be noted: dose 20-50 µM.
Series [5] has as its target Egl nine homolog 1 (Homo sapiens, UniProt Q9GZT9). Briefly: Binding affinity to […] PHD2 (181 to 426 residues) (unknown origin) by fluorescence polarization assay. A general note: Fluorescence polarisation rises when a labelled molecule tumbles more slowly, as on binding a larger partner.
A short description of series [6]: Metabolic stability in rat liver microsomes assessed as clearance at 1 uM preincubated for 5 mins followed by NADPH addition and measured upto 60 mins by LC-MS/MS analysis. The format is ADME, Microsome. The settings on record: time < 65 min, read-out: CLH. (In general: Microsomes from liver hold many membrane-bound enzymes, among them those of drug oxidation.)

Series [7] is described as follows: Metabolic stability in rat liver microsomes assessed as half life at 1 uM preincubated for 5 mins followed by NADPH addition and measured upto 60 mins by LC-MS/MS analysis. The settings on record: time < 65 min. In kind it is ADME, Microsome.
Series [8] concerns Hep 3B2. Nature of the series: Upregulation of EPO mRNA level in human Hep3B cells incubated for 12 hrs by RT-qPCR analysis. The format is functional, cell-based. The settings on record: dose 5-20 µM.
For series [9], the system named is Hep 3B2. Briefly: Effect on VEGFA gene expression in human Hep3B cells at 5 to 20 uM incubated for 12 hrs by RT-qPCR analysis. The format is functional, cell-based. The settings on record: dose 5-20 µM.
The test system of series [10] is Hep 3B2. Briefly: Cytotoxicity against human Hep3B cells incubated for 48 hrs by CCK-8 assay. To be noted: hep 3b2, 48 h. The format is toxicity, cell-based.
Series [11] can be described thus: Upregulation of EPO mRNA level in human Hep3B cells assessed as fold increase at 20 uM incubated for 12 hrs by RT-qPCR analysis. In kind it is functional, Hep 3B2.

For orientation: IC50 means the concentration that inhibits the measured activity by half. Read a high IC50 as lower potency. Usually half-life stands for the time in which the quantity being followed falls by half.

Calls of active or inactive are those of the source. The calls are words filed in the database; no cut-off is given here.

Egl nine homolog 1, sequence (Q9GZT9 whole entry, the tested form may be a part): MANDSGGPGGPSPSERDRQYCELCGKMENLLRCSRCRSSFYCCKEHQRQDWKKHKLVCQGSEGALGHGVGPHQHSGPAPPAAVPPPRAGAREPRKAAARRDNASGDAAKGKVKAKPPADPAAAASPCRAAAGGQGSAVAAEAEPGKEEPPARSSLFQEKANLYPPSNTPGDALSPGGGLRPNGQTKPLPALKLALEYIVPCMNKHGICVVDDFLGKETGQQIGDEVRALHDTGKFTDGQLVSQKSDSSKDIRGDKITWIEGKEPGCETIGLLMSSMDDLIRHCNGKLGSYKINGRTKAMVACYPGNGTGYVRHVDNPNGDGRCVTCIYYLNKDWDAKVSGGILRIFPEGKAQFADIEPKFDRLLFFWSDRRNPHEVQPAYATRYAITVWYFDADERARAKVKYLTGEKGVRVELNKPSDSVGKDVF
Hypoxia-inducible factor 1-alpha (Homo sapiens), sequence (Q16665 whole entry, looked up, the tested form may be a part): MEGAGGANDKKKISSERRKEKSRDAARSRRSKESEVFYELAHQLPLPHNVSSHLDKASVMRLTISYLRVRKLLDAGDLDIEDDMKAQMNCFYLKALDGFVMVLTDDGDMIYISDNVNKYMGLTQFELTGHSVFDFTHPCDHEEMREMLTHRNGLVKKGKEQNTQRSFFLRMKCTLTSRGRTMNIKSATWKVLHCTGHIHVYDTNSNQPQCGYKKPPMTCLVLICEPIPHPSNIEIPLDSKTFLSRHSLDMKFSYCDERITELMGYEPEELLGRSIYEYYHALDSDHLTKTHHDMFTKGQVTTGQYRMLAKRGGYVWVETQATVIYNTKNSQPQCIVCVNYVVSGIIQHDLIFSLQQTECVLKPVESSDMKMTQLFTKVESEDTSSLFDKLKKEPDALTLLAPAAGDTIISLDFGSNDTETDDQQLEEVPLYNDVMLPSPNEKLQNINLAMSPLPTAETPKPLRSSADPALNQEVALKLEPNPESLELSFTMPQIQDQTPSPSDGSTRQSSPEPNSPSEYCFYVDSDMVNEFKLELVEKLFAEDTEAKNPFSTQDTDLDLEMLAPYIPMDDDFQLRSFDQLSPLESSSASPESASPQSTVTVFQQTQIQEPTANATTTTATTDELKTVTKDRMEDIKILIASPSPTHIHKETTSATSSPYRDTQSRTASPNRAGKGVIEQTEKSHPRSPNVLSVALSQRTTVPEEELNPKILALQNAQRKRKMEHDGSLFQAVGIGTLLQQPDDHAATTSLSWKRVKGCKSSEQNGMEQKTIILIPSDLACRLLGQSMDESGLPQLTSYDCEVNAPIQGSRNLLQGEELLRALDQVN
Endothelial PAS domain-containing protein 1 (Homo sapiens), sequence (Q99814 whole entry, the tested form may be a part): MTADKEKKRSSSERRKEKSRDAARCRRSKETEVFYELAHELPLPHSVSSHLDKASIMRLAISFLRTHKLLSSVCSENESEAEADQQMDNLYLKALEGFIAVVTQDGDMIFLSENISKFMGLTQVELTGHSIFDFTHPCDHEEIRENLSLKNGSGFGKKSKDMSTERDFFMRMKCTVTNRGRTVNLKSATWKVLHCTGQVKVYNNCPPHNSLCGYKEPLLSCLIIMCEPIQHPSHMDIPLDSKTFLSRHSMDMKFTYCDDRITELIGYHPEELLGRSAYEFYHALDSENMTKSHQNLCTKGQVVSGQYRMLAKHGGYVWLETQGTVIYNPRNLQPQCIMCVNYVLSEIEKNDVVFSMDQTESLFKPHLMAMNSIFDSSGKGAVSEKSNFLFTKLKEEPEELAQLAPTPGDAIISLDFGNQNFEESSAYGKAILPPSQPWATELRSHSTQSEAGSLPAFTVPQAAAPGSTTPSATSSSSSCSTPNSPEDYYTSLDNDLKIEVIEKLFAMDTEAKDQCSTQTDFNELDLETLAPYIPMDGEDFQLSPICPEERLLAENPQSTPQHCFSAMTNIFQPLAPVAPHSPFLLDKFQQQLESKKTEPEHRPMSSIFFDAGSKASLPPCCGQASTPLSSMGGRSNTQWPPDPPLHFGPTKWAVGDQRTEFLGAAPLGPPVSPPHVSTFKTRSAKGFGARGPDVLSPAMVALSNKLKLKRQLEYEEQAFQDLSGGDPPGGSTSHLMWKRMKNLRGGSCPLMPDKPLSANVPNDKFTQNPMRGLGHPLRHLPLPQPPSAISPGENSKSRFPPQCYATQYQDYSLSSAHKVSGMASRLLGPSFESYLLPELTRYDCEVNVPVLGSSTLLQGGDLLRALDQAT

In the case of `Cc1nc(C(=O)NCC(=O)O)c(O)c2ccc(Oc3ccccc3)cc12`, the outcome in series [1], in series [2] and in series [4] was Active. In addition, in series [3], the Activity result was “Dose-Dependent Effect”.

In turn, `O=C(O)CNC(=O)c1ncc(C2CCN(C(=O)CNc3ccc(C(F)(F)F)cc3)CC2)cc1O` displayed a 50% inhibitory concentration (IC50) in series [5] of 43.4 nM. Further, in [6], the microsomal CLint at 1 µM was 5.6 µL/min/mg.

On to `O=C(O)CNC(=O)c1ncc(C2CCN(S(=O)(=O)Cc3ccc(C(F)(F)F)cc3)CC2)cc1O`, for which, in [5], the IC50 is 98.9 nM. For the same compound, the microsomal CLint at 1 µM in [6] worked out at 5 µL/min/mg.

As to `N#Cc1ccc(C(=O)N2CCC(c3cnc(C(=O)NCC(=O)O)c(O)c3)CC2)cc1`, the 50% inhibitory concentration (IC50) in series [5] came out at 76.5 nM. This lies in the double-digit nanomolar range.

`O=C(O)CNC(=O)c1ncc(C#CCOc2ccc(Cl)cc2)cc1O` [DDO-3055]: the IC50 in [5] was 15.6 nM.

`O=C(O)CNC(=O)c1ncc(C2CCN(C(=O)c3ccccc3)CC2)cc1O`: the IC50 in series [5] came to 69.7 nM.

On to `O=C(O)CNC(=O)c1ncc(C2CCN(C(=O)CNc3ccc(Cl)c(Cl)c3)CC2)cc1O`, for which the half-maximal inhibitory concentration (IC50) in series [5] stood at 19.6 nM. Besides, the outcome in [2] was Active.

For the compound `O=C(O)CNC(=O)c1ncc(C2CCN(C(=O)c3ccc(C(F)(F)F)cc3)CC2)cc1O`, the IC50 in series [5] worked out at 44.3 nM. In addition, in series [2], the outcome was Active. Besides, the microsomal CLint at 1 µM in series [6] is 3.7 µL/min/mg.

Compound `O=C(O)CNC(=O)c1ncc(C2CCN(C(=O)c3ccc(F)cc3)CC2)cc1O` registered an IC50 in [5] of 67.5 nM.

Regarding `O=C(O)CNC(=O)c1ncc(C2CCN(C(=O)c3ccc(Cl)cc3Cl)CC2)cc1O`, the IC50 in series [5] is 144 nM.

In turn, `O=C(O)CNC(=O)c1ncc(C2CCN(C(=O)c3cc(F)cc(F)c3)CC2)cc1O` had a concentration for half-maximal inhibition (IC50) in series [5] of 256 nM.

Turning to `O=C(O)CNC(=O)c1ncc(C2CCN(C(=O)CNc3ccc(OC(F)(F)F)cc3)CC2)cc1O`, the IC50 in series [5] is 39.9 nM. This IC50 lies about 6.4-fold lower than the previous one.

With `O=C(O)CNC(=O)c1ncc(C2CCN(C(=O)CNc3ccc(Cl)cc3Cl)CC2)cc1O`, in series [5], the IC50 worked out at 32.5 nM.

On to `COc1ccc(C(=O)N2CCC(c3cnc(C(=O)NCC(=O)O)c(O)c3)CC2)cc1`, for which the half-maximal inhibitory concentration (IC50) in [5] turned out to be 54.1 nM.

For the compound `O=C(O)CNC(=O)c1ncc(C2CCN(C(=O)CNc3ccc(F)cc3)CC2)cc1O`, the IC50 in series [5] turned out to be 24.3 nM.

In series [5], `Cc1ccc(C(=O)N2CCC(c3cnc(C(=O)NCC(=O)O)c(O)c3)CC2)cc1` showed a half-inhibitory concentration (IC50) of 34.6 nM.

For `O=C(O)CNC(=O)c1ncc(C2CCN(C(=O)CNc3ccccc3)CC2)cc1O`, the concentration for half-maximal inhibition (IC50) in series [5] was 56.8 nM.

`O=C(O)CNC(=O)c1ncc(-c2cccc(Cl)c2)cc1O`: the result in series [2] was Active. Besides, the Activity entry in series [3] was “Dose-Dependent Effect”.

Turning to `O=C(O)CNC(=O)c1ncc(C2CCN(C(=O)c3cccs3)CC2)cc1O`, the IC50 in [5] was 57.6 nM.

`O=C(O)CNC(=O)c1ncc(C2CCN(C(=O)c3ccccc3F)CC2)cc1O`: in series [5], the IC50 is 92.7 nM.

Consider `O=C(O)CNC(=O)c1ncc(C2=CCN(S(=O)(=O)Cc3ccc(C(F)(F)F)cc3)CC2)cc1O`, for which, in series [5], the IC50 turned out to be 13.1 nM. Besides, in series [7], the half-life at 1 µM stood at 7.35 min. For the same compound, in series [6], the microsomal CLint at 1 µM is 135 µL/min/mg.

`O=C(O)CNC(=O)c1ncc(C2CCN(C(=O)c3ccccn3)CC2)cc1O`: the IC50 in series [5] amounted to 158 nM.

Take `Cc1ccc(NCC(=O)N2CCC(c3cnc(C(=O)NCC(=O)O)c(O)c3)CC2)cc1`: the IC50 in [5] came out at 64.5 nM.

As for `O=C(O)CNC(=O)c1ncc(-c2cn(CCCc3ccc(Cl)cc3)nn2)cc1O`, the 50% inhibitory concentration (IC50) in [5] worked out at 22.7 nM. This IC50 is about 2.8-fold lower than that of the compound before.

Compound `O=C(O)CNC(=O)c1ncc(C2CCN(C(=O)c3cccc(Cl)c3)CC2)cc1O` registered an IC50 in [5] of 195 nM.

In the case of `O=C(O)CNC(=O)c1ncc(C2CCN(C(=O)c3ccccc3Cl)CC2)cc1O`, in [5], the IC50 was determined as 131 nM. This IC50 and that of the compound before are within 1.5-fold of each other.

In turn, `O=C(O)CNC(=O)c1ncc(C2CCN(C(=O)c3ccc(Cl)cc3)CC2)cc1O` displayed a 50% inhibitory concentration (IC50) in series [5] of 34.5 nM.

In the case of `O=C(O)CNC(=O)c1ncc(C2CCN(C(=O)c3cccc(F)c3)CC2)cc1O`, the IC50 in series [5] came to 77.1 nM.

Take `O=C(O)CNC(=O)c1ncc(C2CCN(C(=O)c3ccc(OC(F)(F)F)cc3)CC2)cc1O`: the IC50 in series [5] worked out at 24.6 nM. Moreover, the outcome in [1], in [2] and in series [4] was Active. Moreover, the Activity entry is “Dose-Dependent Effect” in series [8], “Dose-Dependent Effect” in series [3] and “Non-Toxic” in [10]. Besides, in [9], the result was inactive. For the same compound, the “fold change (FC)” value in series [11] is reported as 7.
